# Assay results published in patent US9211310B2, “Use of a Chinese medicine composition in preparing medicaments for treating secondary prevention of myocardial infarction” (TASLY PHARMACEUTICAL GROUP CO., LTD, priority 2010, dated 2015).
# Test system: patients after acute myocardial infarction
# Assay: TCM symptom score, total and single (chest pain, chest tightness, short breath, fatigue, palpitation, spontaneous perspiration, pale complexion), same clinical trial
# Type: in vivo, human
# Conditions: for chest pain score 0, number of patients / chest pain score 0, percent of patients / chest pain score 3, number of patients / chest pain score 3, percent of patients / chest pain score 6, number of patients / chest pain score 6, percent of patients / chest pain score 9, number of patients / chest pain score 9, percent of patients / chest tightness score 0, number of patients / chest tightness score 0, percent of patients / chest tightness score 3, number of patients / chest tightness score 3, percent of patients / chest tightness score 6, number of patients / chest tightness score 6, percent of patients / chest tightness score 9, number of patients / chest tightness score 9, percent of patients: 1 month after treatment
# Text: 3508 patients who were in accordance with the diagnostic standards of AMI for 28 days to 2 years and differentiated as Qi deficiency and blood stagnation syndrome by TCM were studied. 0.5 g Chinese medicine composition prepared by the method of EXAMPLE 1 (Coded as QSYQ) was administrated half an hour after meal, 3 times per day.
# They included the overall survival time, angina pectoris score, TCM symptom score and life quality score, where angina pectoris score, TCM symptom score and life quality score were evaluated at randomization, in 1st, 3rd, 6th, 9th, 12th month after treatment and 18th month after follow-up.
# The analysis method referred to the angina pectoris score.
# [1] = 1 month after treatment-baseline, FAS
# [2] = 1 month after treatment-baseline, PP
# [3] = 3 months after treatment-baseline, FAS
# [4] = 3 months after treatment-baseline, PP
smiles,measurement,setting,value
"CC(=O)Oc1ccccc1C(=O)O [Control group, aspirine]","change of chest pain score 0, number of patients",[1],1344
same,"change of chest pain score 0, percent of patients",[1],(78.64%)
same,"change of chest pain score 3, number of patients",[1],226
same,"change of chest pain score 3, percent of patients",[1],(13.22%)
same,"change of chest pain score 6, number of patients",[1],60
same,"change of chest pain score 6, percent of patients",[1],(3.51%)
same,"change of chest pain score 9, number of patients",[1],4
same,"change of chest pain score 9, percent of patients",[1],(0.23%)
same,"change of chest pain score −3, number of patients",[1],59
same,"change of chest pain score −3, percent of patients",[1],(3.45%)
same,"change of chest pain score −6, number of patients",[1],16
same,"change of chest pain score −6, percent of patients",[1],(0.94%)
same,"change of chest pain score −9, number of patients",[1],0
same,"change of chest pain score −9, percent of patients",[1],(0.00%)
same,"change of chest tightness score 0, number of patients",[1],1302
same,"change of chest tightness score 0, percent of patients",[1],(76.18%)
same,"change of chest tightness score 3, number of patients",[1],298
same,"change of chest tightness score 3, percent of patients",[1],(17.44%)
same,"change of chest tightness score 6, number of patients",[1],21
same,"change of chest tightness score 6, percent of patients",[1],(1.23%)
same,"change of chest tightness score 9, number of patients",[1],5
same,"change of chest tightness score 9, percent of patients",[1],(0.29%)
same,"change of chest tightness score −3, number of patients",[1],76
same,"change of chest tightness score −3, percent of patients",[1],(4.45%)
same,"change of chest tightness score −6, number of patients",[1],7
same,"change of chest tightness score −6, percent of patients",[1],(0.41%)
same,"change of chest pain score 0, number of patients",[2],1146
same,"change of chest pain score 0, percent of patients",[2],(78.49%)
same,"change of chest pain score 3, number of patients",[2],197
same,"change of chest pain score 3, percent of patients",[2],(13.49%)
same,"change of chest pain score 6, number of patients",[2],52
same,"change of chest pain score 6, percent of patients",[2],(3.56%)
same,"change of chest pain score 9, number of patients",[2],3
same,"change of chest pain score 9, percent of patients",[2],(0.21%)
same,"change of chest pain score −3, number of patients",[2],50
same,"change of chest pain score −3, percent of patients",[2],(3.42%)
same,"change of chest pain score −6, number of patients",[2],12
same,"change of chest pain score −6, percent of patients",[2],(0.82%)
same,"change of chest pain score −9, number of patients",[2],0
same,"change of chest pain score −9, percent of patients",[2],(0.00%)
same,"change of chest tightness score 0, number of patients",[2],1110
same,"change of chest tightness score 0, percent of patients",[2],(76.03%)
same,"change of chest tightness score 3, number of patients",[2],259
same,"change of chest tightness score 3, percent of patients",[2],(17.74%)
same,"change of chest tightness score 6, number of patients",[2],19
same,"change of chest tightness score 6, percent of patients",[2],(1.30%)
same,"change of chest tightness score 9, number of patients",[2],4
same,"change of chest tightness score 9, percent of patients",[2],(0.27%)
same,"change of chest tightness score −3, number of patients",[2],62
same,"change of chest tightness score −3, percent of patients",[2],(4.25%)
same,"change of chest tightness score −6, number of patients",[2],6
same,"change of chest tightness score −6, percent of patients",[2],(0.41%)
same,"chest pain score 0, number of patients",FAS,608
same,"chest pain score 0, percent of patients",FAS,(35.41%)
same,"chest pain score 3, number of patients",FAS,635
same,"chest pain score 3, percent of patients",FAS,(36.98%)
same,"chest pain score 6, number of patients",FAS,461
same,"chest pain score 6, percent of patients",FAS,(26.85%)
same,"chest pain score 9, number of patients",FAS,13
same,"chest pain score 9, percent of patients",FAS,(0.76%)
same,"chest tightness score 0, number of patients",FAS,608
same,"chest tightness score 0, percent of patients",FAS,(35.41%)
same,"chest tightness score 3, number of patients",FAS,635
same,"chest tightness score 3, percent of patients",FAS,(36.98%)
same,"chest tightness score 6, number of patients",FAS,461
same,"chest tightness score 6, percent of patients",FAS,(26.85%)
same,"chest tightness score 9, number of patients",FAS,13
same,"chest tightness score 9, percent of patients",FAS,(0.76%)
same,"chest pain score 0, number of patients",PP,515
same,"chest pain score 0, percent of patients",PP,(35.13%)
same,"chest pain score 3, number of patients",PP,537
same,"chest pain score 3, percent of patients",PP,(36.63%)
same,"chest pain score 6, number of patients",PP,406
same,"chest pain score 6, percent of patients",PP,(27.69%)
same,"chest pain score 9, number of patients",PP,8
same,"chest pain score 9, percent of patients",PP,(0.55%)
same,"chest tightness score 0, number of patients",PP,515
same,"chest tightness score 0, percent of patients",PP,(35.13%)
same,"chest tightness score 3, number of patients",PP,537
same,"chest tightness score 3, percent of patients",PP,(36.63%)
same,"chest tightness score 6, number of patients",PP,406
same,"chest tightness score 6, percent of patients",PP,(27.69%)
same,"chest tightness score 9, number of patients",PP,8
same,"chest tightness score 9, percent of patients",PP,(0.55%)
same,"change of chest pain score 0, number of patients",[3],1203
same,"change of chest pain score 0, percent of patients",[3],(70.39%)
same,"change of chest pain score 3, number of patients",[3],325
same,"change of chest pain score 3, percent of patients",[3],(19.02%)
same,"change of chest pain score 6, number of patients",[3],76
same,"change of chest pain score 6, percent of patients",[3],(4.45%)
same,"change of chest pain score 9, number of patients",[3],6
same,"change of chest pain score 9, percent of patients",[3],(0.35%)
same,"change of chest pain score −3, number of patients",[3],79
same,"change of chest pain score −3, percent of patients",[3],(4.62%)
same,"change of chest pain score −6, number of patients",[3],20
same,"change of chest pain score −6, percent of patients",[3],(1.17%)
same,"change of chest pain score −9, number of patients",[3],0
same,"change of chest pain score −9, percent of patients",[3],(0.00%)
same,"change of chest tightness score 0, number of patients",[3],1190
same,"change of chest tightness score 0, percent of patients",[3],(69.63%)
same,"change of chest tightness score 3, number of patients",[3],383
same,"change of chest tightness score 3, percent of patients",[3],(22.41%)
same,"change of chest tightness score 6, number of patients",[3],37
same,"change of chest tightness score 6, percent of patients",[3],(2.17%)
same,"change of chest tightness score 9, number of patients",[3],5
same,"change of chest tightness score 9, percent of patients",[3],(0.29%)
same,"change of chest tightness score −3, number of patients",[3],85
same,"change of chest tightness score −3, percent of patients",[3],(4.97%)
same,"change of chest tightness score −6, number of patients",[3],8
same,"change of chest tightness score −6, percent of patients",[3],(0.47%)
same,"change of chest tightness score −9, number of patients",[3],1
same,"change of chest tightness score −9, percent of patients",[3],(0.06%)
same,"change of chest pain score 0, number of patients",[4],1019
same,"change of chest pain score 0, percent of patients",[4],(70.62%)
same,"change of chest pain score 3, number of patients",[4],279
same,"change of chest pain score 3, percent of patients",[4],(19.33%)
same,"change of chest pain score 6, number of patients",[4],63
same,"change of chest pain score 6, percent of patients",[4],(4.37%)
same,"change of chest pain score 9, number of patients",[4],4
same,"change of chest pain score 9, percent of patients",[4],(0.28%)
same,"change of chest pain score −3, number of patients",[4],64
same,"change of chest pain score −3, percent of patients",[4],(4.44%)
same,"change of chest pain score −6, number of patients",[4],14
